In patent publication US7906520B2, “Methods for treating pain” (The General Hospital Corporation, priority 2003, dated 2011):

How the values were obtained:
[1] = test system: formalin injection into the hindpaw; assay: Formalin test: flinching behavior and cFos immunoreactivity in dorsal horn; type: in vivo, rat
Procedure: DAHP (180 mg/kg) was injected i.p. one hour before injection of formalin into the hindpaw. Flinches were counted for one hour starting right after formalin injection. FIG. 24A is a series of photo micrographs showing cFos immunoreactivity in ipsilateral dorsal horn neurons two hours after formalin injection in DAHP and vehicle-treated rats. FIG. 24B is a bar graph quantifying the number of cFos immunoreactive cell bodies observed under each condition.

[2] = test system: CFA-induced paw inflammation; assay: CFA model of inflammatory pain: Hargreaves test and paw weight; type: in vivo, rat
Procedure: FIGS. 11A-11E are a series of graphs showing the effect of DHAP on thermal hyperalgesia in the CFA model which is a model for inflammatory pain. […] On the left end of the graph, two doses of DAHP (180 mg/kg i.p.) were injected, the first 30 minutes before injection of CFA into the hindpaw, the second 4 hours after CFA (indicated with arrows D1 and D2). On the right, a single dose (dotted arrow D1) of DAHP (180 mg/kg i.p.) was injected 24 h after induction of paw inflammation without any treatment during the first 24 h following CFA injection. […] In FIGS. 11C-11D, the effects of systemically administered DAHP (180 mg/kg i.p. single dose; 11C) are compared with the effects of a single intrathecal dose (1 mg/kg i.t.; 11D) which was administered via a lumbar spinal catheter. In both cases, treatment was started 24 hours after CFA injection into the hindpaw. Because of slightly different baseline levels (11C compared with 11D) effects of DAHP after i.p. and i.t. treatment are additionally presented as percentage change of paw withdrawal latency (FIG. 11E) to allow for a direct comparison of both routes of administration.
FIG. 12 is a bar graph showing the increase of the paw weight of the inflamed paw compared with the contralateral paw. Paw weight was determined 48 hours following CFA injection. The increase of the paw weight is a measure for the inflammatory paw edema and therefore allows assessment of paw inflammation.
FIGS. 15A and 15B show the effect of the sepiapterin reductase inhibitor, N-acetyl-serotonin (NAS) on thermal hyperalgesia in the CFA model. The paw withdrawal latency (PWL) to radiant heat (Hargreaves test) is a measure for the heat sensitivity. NAS treatment (single dose of 50 mg/kg i.p.) was started 24 hours after CFA injection into the hindpaw. Data are presented as percentage change of the PWL compared with the PWL of the non-inflamed contralateral paw. […] Paw weight was determined 48 hours following CFA injection. The increase of the paw weight is a measure for the inflammatory paw edema.
(§1) Hypersensitivity was induced using the CFA model of paw inflammation. In these experiments, BH4 was injected at time “zero” after measurement of baseline paw withdrawal latency.

naïve rats = assay: Response to tactile and heat stimuli in naïve rats; type: in vivo, rat; conditions: non-injured animals
Procedure: FIGS. 13A and 13B are a series of graphs showing the effects of DAHP on the response to tactile (13A) and heat stimuli (13B) in naïve rats. A single dose of DAHP (180 mg/kg i.p.) or vehicle was injected at time “zero”.
as §1

GTPCH-1 expression = assay: GTPCH-I in situ hybridization in DRG after SNI; type: in vivo; conditions: 14 days after SNI surgery, DAHP vs vehicle
Excerpt: FIG. 27A is a series of photomicrographs of in situ hybridization of GTPCH-I in the ipsilateral (lesioned) and contralateral (control) dorsal root ganglia 3 days (top panel) and 14 days (bottom panel) after SNI surgery. FIG. 27B is a series of photomicrographs of GTPCH-I in situ hybridization 14 days after SNI surgery and treatment with either DAHP or vehicle control.

Nc1cc(O)nc(N)n1 [DAHP, 2,4-Diamino-6-hydroxypyrimidine]
flinching behavior in the formalin assay ([1]; single i.p. dose of 180 mg/kg): reduced the flinching behavior | c-FOS immunoreactivity in ipsilateral dorsal horn neurons ([1]; two hours after formalin, intraperitoneal DAHP, p<0.05): significantly reduced elevation | thermal hyperalgesia ([2]; DAHP 1 mg/kg i.t. via lumbar spinal catheter): reduced thermal hyperalgesia | paw withdrawal latency of the non-inflamed contralateral paw ([2]; DAHP 180 mg/kg i.p.): no effect | thermal hyperalgesia ([2]; DAHP 180 mg/kg i.p., 30 min before or 24 h after CFA): reduced thermal hyperalgesia | inflammatory paw edema (paw weight) ([2]; DAHP treated vs control, 48 hours after CFA): no difference in the degree of paw inflammation | motor activity, von Frey and Hargreaves tests (naïve rats; DAHP 180 mg/kg i.p. single dose): did not result in a difference in motor activity | sedation, general level of activity (naïve rats; DAHP): no obvious signs of sedation | GTPCH-1 expression in DRG (GTPCH-1 expression): does not affect GTPCH-1 expression
